Data taken from patent US10947263B2, “Cyclic dinucleotides as anticancer agents” (BRISTOL-MYERS SQUIBB COMPANY, priority 2017, dated 2021).
pEC50, pIC50: −log10 of the molar value. Like-named read-outs stand apart in the source and are kept apart here.

Key:
[1] = test system: STING / NF-κB pathway in THP1-Dual cells; assay: STING THP1 Reporter Assay, NF-κB pathway (SEAP, QUANTI-Blue); type: cell-based; details: 10% human plasma, 100% activation = 100 μM cGAMP, SEAP readout, read-out: THP1 Reporter Assays EC50 NFkB
Excerpt: (§1) THP1-Dual™ cells were derived from the human THP-1 monocyte cell line by stable integration of two inducible reporter constructs. To this end, THP1-Dual™ cells allow the simultaneous study of the […], by monitoring the activity of SEAP, and the IRF pathway by assessing the activity of a secreted luciferase (Lucia). Both reporter proteins are readily measurable in the cell culture supernatant when using QUANTI-Blue™, a SEAP detection reagent, and QUANTI-Luc™, a luciferase detection reagent.
(§2) THP1-Dual™ cells induce the activation of NF-κB in response to STING agonists. They also trigger the IRF pathway upon stimulation with STING agonists, such as cGAMP. Here, the THP-1-Dual cells were used to assess STING binders for function on the cellular level.
(§3) Serial dilutions of compounds in DMSO were added to low volume 384 well plates at 100 nl/well using an ECHO acoustic dispenser (Labcyte, model 550) to achieve final starting concentration of 100 μM in cell suspension. THP-1 Dual™ STING reporter cells (Invivogen, Dual cells cat #THPD-nfis) were added to the plates with compounds at 15,000 cells in 10 μL per well in RPMI media (Gibco, cat #11875) containing 10% human plasma in a low volume 384-well black wall clear bottom tissue culture plate (Corning, cat #3542) for SEAP assay and low volume solid white plate (Corning, cat #3826) for luciferase assay. One column of the plate was reserved for treatment with cGAMP at 100 μM for 100% activation calculation and one column for no treatment (DMSO only) for baseline activation. Plates were then incubated in 37 OC incubator at 5% CO2 for 20 hours.
(§4) In the SEAP assay, […] 2× QuantiBlue (Invivogen, cat #Rep-qb2) is added to 384 well black plates seeded with THP1 cells and incubated at 37° C. for 2 hours. Plates were read on the Envision (Perkin Elmer) at 620 nm wavelength (OD620). In the luciferase assay, 5 μl of Quantiluc (Invivogen, Rep-qlc2) is added to white 384 well plates seeded with THP1 cells and read at 5 minutes on the Envision (Perkin Elmer) using a luminescence protocol (RLU). For both cell lines, 100% activation was determined by value (RLU) of THP-1 Dual STING cells stimulated with 100 μM cGAMP (Invivogen, cat #TLRL-NACGA23-5).

[2] = target: T1, STING AQ (His-TVMV-S-hSTING(155-341)-G230A-R293Q) (Homo sapiens, UniProt Q86WV6, G230A/H232R/R293Q); assay: STING HTRF binding assay (time resolved FRET competition), STING AQ; details: 20 nM His-tagged STING AQ cytoplasmic domain, 40 nM fluorescein-labeled cGAMP analog probe, one hour; read-out: HTRF Binding Assays IC50 AQ
T1 construct: STING AQ: His-TVMV-S-hSTING(155-341)-G230A-R293Q
Experimental: (§5) A time resolved FRET-based competition binding assay was used to assess test article binding to STING WT and STING AQ. His-tagged STING cytoplasmic domain (WT or AQ) at a concentration of 20 nM was incubated with 2.5 nM Tb-labeled anti-His antibody, test compound, and fluorescein-labeled cGAMP analog probe (BioLog cat. no. C195) at a concentration of 200 nM (STING WT) or 40 nM (STING AQ) in PBS containing 0.005% Tween-20 and 0.1% BSA for one hour. Fluorescence at 495 nm and 520 nm was measured using an EnVision microplate reader to quantify FRET between Tb-labeled anti-His antibody and fluorescein-labeled probe. Background was defined as the signal obtained in the absence of STING protein, and background subtracted FRET ratios were normalized to the maximum signal obtained in the absence of test compound. These values were converted to a percent inhibition. Percent inhibition was determined for test compounds at 11 concentrations. The IC50, defined as the concentration of competing test compound needed to reduce specific binding of the probe by 50%, was calculated using the 4 parameter logistic equation to fit the data
STING AQ: His-TVMV-S-hSTING(155-341)-G230A-R293Q • […] […] […] […] LRQEEKEEV (SEQ ID NO:2)

[3] = target: T2, STING WT (His-TVMV-S-hSTING(155-341)-H232R) (Homo sapiens, UniProt Q86WV6, H232R); assay: STING HTRF binding assay (time resolved FRET competition), STING WT; details: 20 nM His-tagged STING WT cytoplasmic domain, 200 nM fluorescein-labeled cGAMP analog probe, one hour; read-out: HTRF Binding Assays IC50 WT
T2 construct: STING WT: His-TVMV-S-hSTING(155-341)-H232R
Experimental: as §5
STING WT: His-TVMV-S-hSTING(155-341)-H232R • […] […] […] […] LRQEEKEEV (SEQ ID NO:1)

[4] = test system: STING / IRF pathway in THP1-Dual cells; assay: STING THP1 Reporter Assay, IRF pathway (secreted Lucia luciferase, QUANTI-Luc); type: cell-based; details: 10% human plasma, 100% activation = 100 μM cGAMP, luciferase readout, read-out: THP1 Reporter Assays EC50 IRF3
Excerpt: as §1, §2, §3, §4

T2 sequence (Q86WV6 with tags, fused parts or gaps H232R): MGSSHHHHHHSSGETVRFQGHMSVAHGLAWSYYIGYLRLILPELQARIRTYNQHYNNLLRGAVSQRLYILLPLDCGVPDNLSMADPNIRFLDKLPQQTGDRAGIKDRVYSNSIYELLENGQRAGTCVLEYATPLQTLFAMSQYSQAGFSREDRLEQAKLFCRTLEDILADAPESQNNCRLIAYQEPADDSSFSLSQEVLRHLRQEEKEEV
T1 sequence (Q86WV6 with tags, fused parts or gaps G230A/H232R/R293Q): as the sequence (Q86WV6 with tags, fused parts or gaps H232R) above, with G99A, R162Q counted along it

pEC50 ([1]; 20 hours) | pIC50 [2] | pIC50 [3] | pEC50 ([4]; 20 hours) | pEC50 ([1]; Homo sapiens, THP1-Dual, 20 h) | pEC50 ([4]; Homo sapiens, THP1-Dual, 20 h) | Compound
5.65 | 8.30 | 7.70 | 5.88 |  |  | NC(=O)c1cccc2c1nnn2[C@@H]1O[C@@H]2COP(=O)(S)O[C@H]3[C@@H](F)[C@H](n4cnc5c(N)ncnc54)O[C@@H]3COP(=O)(S)O[C@@H]1[C@@H]2F (single isomer, unassigned) [Example 10-1]
4.12 | 8.00 | 7.00 | 4.33 |  |  | NC(=O)c1cccc2c1nnn2[C@@H]1O[C@@H]2COP(=O)(S)O[C@H]3[C@@H](F)[C@H](n4cnc5c(N)ncnc54)O[C@@H]3COP(=O)(S)O[C@@H]1[C@@H]2F (single isomer, unassigned) [Example 10-2]
5.05 | 8.30 | 7.30 | 5.29 |  |  | NC(=O)c1cccc2c1nnn2[C@@H]1O[C@@H]2COP(=O)(S)O[C@H]3[C@@H](F)[C@H](n4cnc5c(N)ncnc54)O[C@@H]3COP(=O)(S)O[C@@H]1[C@@H]2F (single isomer, unassigned) [Example 10-3]
6.05 | 8.70 | 8.00 | 6.52 |  |  | NC(=O)c1cccc2c1nnn2[C@@H]1O[C@@H]2COP(=O)(S)O[C@H]3[C@@H](F)[C@H](n4cnc5c(N)ncnc54)O[C@@H]3COP(=O)(S)O[C@@H]1[C@@H]2F (single isomer, unassigned) [Example 10-4]
5.68 | 8.70 | 8.00 | 5.92 |  |  | Nc1ncnc2c1ncn2[C@@H]1O[C@@H]2COP(=O)(S)O[C@@H]3[C@H](F)[C@@H](COP(=O)(S)O[C@H]2[C@H]1F)O[C@H]3n1nnc2c([N+](=O)[O-])cccc21 (single isomer, unassigned) [Example 11-1]
6.52 | 8.52 | 8.00 | 6.89 |  |  | Nc1ncnc2c1ncn2[C@@H]1O[C@@H]2COP(=O)(S)O[C@@H]3[C@H](F)[C@@H](COP(=O)(S)O[C@H]2[C@H]1F)O[C@H]3n1nnc2c([N+](=O)[O-])cccc21 (single isomer, unassigned) [Example 11-2]
5.01 | 8.00 | 7.30 | 5.40 |  |  | Nc1ncnc2c1ncn2[C@@H]1O[C@@H]2COP(=O)(S)O[C@@H]3[C@H](F)[C@@H](COP(=O)(S)O[C@H]2[C@H]1F)O[C@H]3n1nnc2c([N+](=O)[O-])cccc21 (single isomer, unassigned) [Example 11-3]
4.46 | 7.70 | 6.82 | 4.68 |  |  | Nc1ncnc2c1ncn2[C@@H]1O[C@@H]2COP(=O)(S)O[C@@H]3[C@H](F)[C@@H](COP(=O)(S)O[C@H]2[C@H]1F)O[C@H]3n1nnc2c([N+](=O)[O-])cccc21 (single isomer, unassigned) [Example 11-4]
 | 8.00 | 7.10 |  | 5.27 | 5.80 | Nc1ncnc2c1ncn2[C@@H]1O[C@@H]2COP(=O)(S)O[C@@H]3[C@H](F)[C@@H](COP(=O)(S)O[C@H]2[C@H]1F)O[C@H]3n1nnc2c(N)cccc21 (single isomer, unassigned) [Example 12-1]
5.31 | 8.00 | 7.15 | 5.92 |  |  | Nc1ncnc2c1ncn2[C@@H]1O[C@@H]2COP(=O)(S)O[C@@H]3[C@H](F)[C@@H](COP(=O)(S)O[C@H]2[C@H]1F)O[C@H]3n1nnc2c(N)cccc21 (single isomer, unassigned) [Example 13-1]
5.68 | 8.00 | 7.70 | 6.00 |  |  | O=[N+]([O-])c1cccc2c1nnn2[C@@H]1O[C@@H]2COP(=O)(S)O[C@H]3[C@@H](F)[C@H](n4cnc5c4ncn4ccnc54)O[C@@H]3COP(=O)(S)O[C@@H]1[C@@H]2O (single isomer, unassigned) [Example 15-1]
4.01 | 7.30 | 5.76 | 4.20 |  |  | O=[N+]([O-])c1cccc2c1nnn2[C@@H]1O[C@@H]2COP(=O)(S)O[C@H]3[C@@H](F)[C@H](n4cnc5c4ncn4ccnc54)O[C@@H]3COP(=O)(S)O[C@@H]1[C@@H]2O (single isomer, unassigned) [Example 15-2]
